Laboratory results taken from ChEMBL document CHEMBL1146741, “Cycloalkyl[b][1,4]benzodiazepinoindoles are agonists at the human 5-HT2C receptor” (Bioorg Med Chem Lett, 2004).
Each block holds one molecule with its values, some of them ahead of it.

What was measured:
[1] = molecular target: T1, 5-hydroxytryptamine receptor 2C (Homo sapiens) (UniProt P28335); experiment: Agonistic binding affinity against human 5-hydroxytryptamine 2C receptor in CHO cells using [125I]- DOI radioligand, expressed as Emax; format: cell-based
T1 sequence (whole entry): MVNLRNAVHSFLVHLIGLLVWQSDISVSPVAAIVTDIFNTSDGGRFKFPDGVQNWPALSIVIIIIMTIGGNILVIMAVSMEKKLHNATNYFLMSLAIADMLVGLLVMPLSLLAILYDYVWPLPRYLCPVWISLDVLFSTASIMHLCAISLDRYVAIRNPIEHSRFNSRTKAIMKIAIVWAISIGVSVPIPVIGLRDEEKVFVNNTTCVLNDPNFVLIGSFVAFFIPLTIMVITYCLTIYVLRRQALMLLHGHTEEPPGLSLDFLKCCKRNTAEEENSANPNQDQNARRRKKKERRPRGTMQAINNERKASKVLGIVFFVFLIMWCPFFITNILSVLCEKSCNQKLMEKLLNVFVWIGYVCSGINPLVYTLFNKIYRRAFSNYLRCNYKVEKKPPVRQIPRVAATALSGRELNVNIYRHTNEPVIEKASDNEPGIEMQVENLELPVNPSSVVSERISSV

[2] = molecular target: T2, 5-hydroxytryptamine receptor 2A (Homo sapiens, UniProt P28223); experiment: Agonistic binding affinity against human 5-hydroxytryptamine 2A receptor in CHO cells using [125I]DOI radioligand
[3] = molecular target: T1, 5-hydroxytryptamine receptor 2C (Homo sapiens); experiment: Agonistic binding efficacy against human 5-hydroxytryptamine 2C receptor in CHO cells using [125I]- DOI radioligand; format: cell-based
[4] = molecular target: T2, 5-hydroxytryptamine receptor 2A; experiment: Agonistic binding affinity against human 5-hydroxytryptamine 2A receptor in CHO cells using [125I]-DOI
[5] = molecular target: T3, 5-hydroxytryptamine receptor 2C (Homo sapiens, UniProt P28335); experiment: Agonistic binding affinity against human 5-hydroxytryptamine 2C receptor in CHO cells using [125I]- DOI; format: cell-based
T3 sequence (P28335 whole entry): T1 sequence (whole entry)

[6] = molecular target: T4, 5-hydroxytryptamine receptor 1A (Homo sapiens) (UniProt P08908); experiment: Percent binding affinity against 5-hydroxytryptamine 1A receptor; details: concentration not given here
T4 sequence (whole entry): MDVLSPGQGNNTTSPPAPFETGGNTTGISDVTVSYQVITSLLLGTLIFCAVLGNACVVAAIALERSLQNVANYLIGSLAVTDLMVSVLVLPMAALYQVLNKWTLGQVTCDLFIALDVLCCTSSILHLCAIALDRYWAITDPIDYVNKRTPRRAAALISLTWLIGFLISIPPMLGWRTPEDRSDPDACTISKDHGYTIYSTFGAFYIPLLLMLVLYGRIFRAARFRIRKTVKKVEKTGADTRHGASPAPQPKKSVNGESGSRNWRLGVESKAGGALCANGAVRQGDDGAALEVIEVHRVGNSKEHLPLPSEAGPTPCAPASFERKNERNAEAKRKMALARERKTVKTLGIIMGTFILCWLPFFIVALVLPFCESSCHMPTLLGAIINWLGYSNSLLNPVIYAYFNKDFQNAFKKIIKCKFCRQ

[7] = molecular target: D(3) dopamine receptor (Homo sapiens) (UniProt P35462); experiment: Percent binding affinity against dopamine D3 receptor; details: concentration not given here
[8] = molecular target: D(4) dopamine receptor (Homo sapiens) (UniProt P21917); experiment: Percent binding affinity against dopamine receptor D4; details: concentration not given here
[9] = molecular target: T2, 5-hydroxytryptamine receptor 2A; experiment: Effective concentration against human 5-hydroxytryptamine 2A receptor in CHO cells by stimulation of [3H]inositol monophosphate production

T2 sequence (P28223 whole entry): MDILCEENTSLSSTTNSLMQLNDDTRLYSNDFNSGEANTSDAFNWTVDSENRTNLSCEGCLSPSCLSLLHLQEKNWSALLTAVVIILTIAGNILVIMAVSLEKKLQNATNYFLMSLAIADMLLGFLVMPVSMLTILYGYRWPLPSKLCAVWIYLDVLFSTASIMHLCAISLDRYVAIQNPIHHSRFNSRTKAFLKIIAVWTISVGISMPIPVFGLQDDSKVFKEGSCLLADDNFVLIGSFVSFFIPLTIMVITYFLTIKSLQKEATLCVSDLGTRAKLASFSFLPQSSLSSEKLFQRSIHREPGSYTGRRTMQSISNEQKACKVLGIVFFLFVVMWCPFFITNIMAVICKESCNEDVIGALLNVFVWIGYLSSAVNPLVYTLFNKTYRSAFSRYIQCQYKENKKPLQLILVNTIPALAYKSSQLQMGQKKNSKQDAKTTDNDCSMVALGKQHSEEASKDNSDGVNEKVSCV
Chain of D(4) dopamine receptor (Homo sapiens) (P21917 whole entry, looked up): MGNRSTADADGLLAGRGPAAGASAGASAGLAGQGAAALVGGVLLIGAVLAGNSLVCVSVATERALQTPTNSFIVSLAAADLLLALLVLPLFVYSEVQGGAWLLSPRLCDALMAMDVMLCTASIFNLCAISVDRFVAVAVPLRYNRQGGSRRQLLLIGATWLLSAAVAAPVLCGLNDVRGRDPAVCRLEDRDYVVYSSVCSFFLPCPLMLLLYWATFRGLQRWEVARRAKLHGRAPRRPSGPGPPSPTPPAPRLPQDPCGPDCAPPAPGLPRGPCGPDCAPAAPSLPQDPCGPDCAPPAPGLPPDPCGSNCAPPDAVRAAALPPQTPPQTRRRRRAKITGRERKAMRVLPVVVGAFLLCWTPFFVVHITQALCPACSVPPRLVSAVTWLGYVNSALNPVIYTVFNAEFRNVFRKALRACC
Chain of D(3) dopamine receptor (Homo sapiens) (P35462 whole entry, looked up): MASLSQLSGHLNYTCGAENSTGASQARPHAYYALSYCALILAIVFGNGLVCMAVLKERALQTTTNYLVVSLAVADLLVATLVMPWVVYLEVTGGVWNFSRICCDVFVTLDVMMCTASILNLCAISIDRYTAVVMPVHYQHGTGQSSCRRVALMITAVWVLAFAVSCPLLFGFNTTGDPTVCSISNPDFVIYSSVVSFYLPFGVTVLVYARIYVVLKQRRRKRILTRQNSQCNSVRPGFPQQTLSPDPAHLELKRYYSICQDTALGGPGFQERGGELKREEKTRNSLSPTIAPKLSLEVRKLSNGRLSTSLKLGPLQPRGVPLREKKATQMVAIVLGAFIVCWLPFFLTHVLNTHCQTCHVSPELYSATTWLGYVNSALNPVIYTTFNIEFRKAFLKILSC

Compound: c1cc2c3c(c1)c1c(n3CCNC2)CCCCC1
Efficacy [3]: 73%
Ki [4]: 0.199 µM

Compound: CC1(C)Cc2c(c3cccc4c3n2CCNC4)C(C)(C)C1
Ki [5]: 0.079 µM
Ki [4]: 0.152 µM

Compound: c1cc2c3c(c1)c1c(n3CCNC2)CCCCCC1
inhibition [6]: 4%
Efficacy [3]: 102%
Emax [1]: 102%
inhibition [7]: 37%
inhibition [8]: 47%
Ki [4]: 0.036 µM
EC50 [9]: 64 µM

Compound: Cc1cc2c3c(c1)c1c(n3CCNC2)CCCC1
Ki [4]: 1.23 µM

Compound: Cc1cc2c3c(c1)c1c(n3CCNC2)CCC1
Ki [4]: 2.53 µM

The remaining lines, values ahead:

Emax [1]: 90%
Ki [2]: 0.922 µM
Compound: c1cc2c3c(c1)c1c(n3CCNC2)CCC1

Ki [5]: 0.111 µM
Compound: Fc1ccc2c3c1c1c(n3CCNC2)CCCC1

Ki [4]: 1.56 µM
Compound: C[C@@H]1Cn2c3c(c4cccc(c42)CN1)CCCC3
